Test results reported in patent US20210246157A1, “CAMPTOTHECIN DERIVATIVES AND PREPARATION METHODS AND APPLICATIONS THEREOF” (priority 2018, published 2021).

What was measured:
tumor = test: Multi-dose in vivo antitumor activity, tumor volume (Example 20); set-up: species or system mice; conditions: for Mouse Tumor Volume: caudal vein once every 2 days; for tumor inhibition effects of the high-dose groups compared with CPT-11 (in words): same dosage (10 mg/kg), p<0.001; for dose dependence of tumor inhibition (in words): low, medium and high dose
Procedure: The drugs are administered through the caudal veins of mice once every 2 days for a total of 7 times.
Tumor volume is measured every three days from day 0. The maximum diameter (a) of the tumor is measured first, and then the longest radial line (b) perpendicular to the maximum diameter is measured, using mm as unit. Tumor volume is calculated according to the following formula: […]

MDA-MB-231 = test: Cytotoxicity test (MTT, 72 h); conditions: Homo sapiens, MDA-MB-231, 72 h, read-out: 50% Inhibiting Concentration value (IC50)
Procedure: In order to investigate the antitumor activities of the compounds, a variety of tumor cell lines for test are selected. Cells at logarithmic growth period are inoculated in a 96-well plate overnight, then drugs with a certain gradient concentrations are added, and incubation is carried out in a cell culture chamber (5% CO2, 37° C.) for 72 h.

SMILES: CCc1c2c(nc3ccc(OC(=O)OCCOCCOCCOCc4cn(CCO[C@H]5O[C@@H](CO)[C@H](O)[C@@H](O)[C@@H]5O)nn4)cc13)-c1cc3c(c(=O)n1C2)COC(=O)[C@]3(O)CC [Compound 58]
- Mouse Tumor Volume (tumor; day 0, high-dose group (H) 13.73 mg/kg): 120.63 mm^3
- Mouse Tumor Volume (tumor; day 0, low-dose group (L) 3.433 mg/kg): 110.67 mm^3
- Mouse Tumor Volume (tumor; day 0, medium-dose group (M) 6.865 mg/kg): 113.01 mm^3
- Mouse Tumor Volume (tumor; day 3, high-dose group (H) 13.73 mg/kg): 151.62 mm^3
- Mouse Tumor Volume (tumor; day 3, low-dose group (L) 3.433 mg/kg): 164.30 mm^3
- Mouse Tumor Volume (tumor; day 3, medium-dose group (M) 6.865 mg/kg): 106.18 mm^3
- Mouse Tumor Volume (tumor; day 6, high-dose group (H) 13.73 mg/kg): 206.78 mm^3
- Mouse Tumor Volume (tumor; day 6, low-dose group (L) 3.433 mg/kg): 235.34 mm^3
- Mouse Tumor Volume (tumor; day 6, medium-dose group (M) 6.865 mg/kg): 122.56 mm^3
- Mouse Tumor Volume (tumor; day 9, high-dose group (H) 13.73 mg/kg): 254.08 mm^3
- Mouse Tumor Volume (tumor; day 9, low-dose group (L) 3.433 mg/kg): 252.37 mm^3
- Mouse Tumor Volume (tumor; day 9, medium-dose group (M) 6.865 mg/kg): 151.19 mm^3
- Mouse Tumor Volume (tumor; day 12, high-dose group (H) 13.73 mg/kg): 317.44 mm^3
- Mouse Tumor Volume (tumor; day 12, low-dose group (L) 3.433 mg/kg): 316.07 mm^3
- Mouse Tumor Volume (tumor; day 12, medium-dose group (M) 6.865 mg/kg): 141.38 mm^3
- Mouse Tumor Volume (tumor; day 15, high-dose group (H) 13.73 mg/kg): 430.78 mm^3
- Mouse Tumor Volume (tumor; day 15, low-dose group (L) 3.433 mg/kg): 375.47 mm^3
- Mouse Tumor Volume (tumor; day 15, medium-dose group (M) 6.865 mg/kg): 141.13 mm^3
- Mouse Tumor Volume (tumor; day 18, high-dose group (H) 13.73 mg/kg): 519.79 mm^3
- Mouse Tumor Volume (tumor; day 18, low-dose group (L) 3.433 mg/kg): 401.94 mm^3
- Mouse Tumor Volume (tumor; day 18, medium-dose group (M) 6.865 mg/kg): 134.18 mm^3
- Mouse Tumor Volume (tumor; day 21, high-dose group (H) 13.73 mg/kg): 555.67 mm^3
- Mouse Tumor Volume (tumor; day 21, low-dose group (L) 3.433 mg/kg): 433.61 mm^3
- Mouse Tumor Volume (tumor; day 21, medium-dose group (M) 6.865 mg/kg): 142.06 mm^3
- increase of tumor volume compared with other groups (in words) (tumor; high-dose group, after last administration): slowest increase
- tumor inhibition effects of the high-dose groups compared with CPT-11 (in words) (tumor): better than that of positive control group CPT-11
- dose dependence of tumor inhibition (in words) (tumor): dose-dependent
- IC50 (MDA-MB-231): 521 nM

SMILES: CCc1c2c(nc3ccc(OC(=O)NCCOCc4cn(CCO[C@H]5O[C@@H](CO)[C@H](O)[C@@H](O)[C@@H]5O)nn4)cc13)-c1cc3c(c(=O)n1C2)COC(=O)[C@]3(O)CC [Compound 67]
- Mouse Tumor Volume (tumor; day 0, high-dose group (H) 12.30 mg/kg): 121.62 mm^3
- Mouse Tumor Volume (tumor; day 0, low-dose group (L) 3.075 mg/kg): 125.58 mm^3
- Mouse Tumor Volume (tumor; day 0, medium-dose group (M) 6.15 mg/kg): 161.01 mm^3
- Mouse Tumor Volume (tumor; day 3, high-dose group (H) 12.30 mg/kg): 91.15 mm^3
- Mouse Tumor Volume (tumor; day 3, low-dose group (L) 3.075 mg/kg): 194.43 mm^3
- Mouse Tumor Volume (tumor; day 3, medium-dose group (M) 6.15 mg/kg): 168.50 mm^3
- Mouse Tumor Volume (tumor; day 6, high-dose group (H) 12.30 mg/kg): 96.67 mm^3
- Mouse Tumor Volume (tumor; day 6, low-dose group (L) 3.075 mg/kg): 197.42 mm^3
- Mouse Tumor Volume (tumor; day 6, medium-dose group (M) 6.15 mg/kg): 208.68 mm^3
- Mouse Tumor Volume (tumor; day 9, high-dose group (H) 12.30 mg/kg): 103.36 mm^3
- Mouse Tumor Volume (tumor; day 9, low-dose group (L) 3.075 mg/kg): 278.06 mm^3
- Mouse Tumor Volume (tumor; day 9, medium-dose group (M) 6.15 mg/kg): 220.90 mm^3
- Mouse Tumor Volume (tumor; day 12, high-dose group (H) 12.30 mg/kg): 110.74 mm^3
- Mouse Tumor Volume (tumor; day 12, low-dose group (L) 3.075 mg/kg): 420.38 mm^3
- Mouse Tumor Volume (tumor; day 12, medium-dose group (M) 6.15 mg/kg): 295.90 mm^3
- Mouse Tumor Volume (tumor; day 15, high-dose group (H) 12.30 mg/kg): 133.88 mm^3
- Mouse Tumor Volume (tumor; day 15, low-dose group (L) 3.075 mg/kg): 498.90 mm^3
- Mouse Tumor Volume (tumor; day 15, medium-dose group (M) 6.15 mg/kg): 378.20 mm^3
- Mouse Tumor Volume (tumor; day 18, high-dose group (H) 12.30 mg/kg): 116.64 mm^3
- Mouse Tumor Volume (tumor; day 18, low-dose group (L) 3.075 mg/kg): 587.60 mm^3
- Mouse Tumor Volume (tumor; day 18, medium-dose group (M) 6.15 mg/kg): 404.02 mm^3
- Mouse Tumor Volume (tumor; day 21, high-dose group (H) 12.30 mg/kg): 103.48 mm^3
- Mouse Tumor Volume (tumor; day 21, low-dose group (L) 3.075 mg/kg): 624.45 mm^3
- Mouse Tumor Volume (tumor; day 21, medium-dose group (M) 6.15 mg/kg): 394.44 mm^3
- tumor inhibition effects of the high-dose groups compared with CPT-11 (in words) (tumor): better than that of positive control group CPT-11
- dose dependence of tumor inhibition (in words) (tumor): dose-dependent
- IC50 (MDA-MB-231): 876 nM
